Results published in ChEMBL document CHEMBL1150523, “Synthesis of 1-(2-Deoxy-2-C-fluoromethyl--D-arabinofuranosyl)cytosine as a potential antineoplastic agent” (Bioorg Med Chem Lett, 1994).
Values after ≈ are worked out from the molar mass of the structure shown.

Assays:
Format in all cases: functional, cell-based
[1] = tested on: KATO III stomach cancer cell line; experiment: Inhibitory concentration against stomach adenocarcinoma KATO-III cell line for cytotoxicity was determined; details: Homo sapiens
COLO 320DM = experiment: Inhibitory concentration against colon adenocarcinoma COLO 320DM cell line for cytotoxicity was determined; details: Homo sapiens
KB = experiment: Inhibitory concentration against solid tumor KB cell line for cytotoxicity was determined; details: Homo sapiens
PC-8 = experiment: Inhibitory concentration against lung adenocarcinoma PC-8 cell line for cytotoxicity was determined; details: Homo sapiens
CCRF-HSB-2 = experiment: Inhibitory concentration against human T-cell line CCRF-HSB-2 for cytotoxicity was determined
A-375 = experiment: Inhibitory concentration against melanoma A-375 cell line for cytotoxicity was determined; details: Homo sapiens

Nc1ccn([C@@H]2O[C@H](CO)C(O)C2CF)c(=O)n1 (single isomer, unassigned)
IC50 [1]: 11 µg/mL (≈ 42.4 µM)
IC50 (COLO 320DM): 1.6 µg/mL (≈ 6.17 µM)
IC50 (KB): 4.47 µg/mL (≈ 17.2 µM)
IC50 (PC-8): 26 µg/mL (≈ 100 µM)
IC50 (CCRF-HSB-2): 0.03 µg/mL (≈ 0.116 µM)
IC50 (A-375): 1.6 µg/mL (≈ 6.17 µM)
